Experiments:
Conditions in all cases: incubation time: 72 h
CAL-51 [1] = experiment: normalised viability (% of control), CellTiter-Blue; higher = more viable cells (about 100 = DMSO control)
Method: (§1)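 DSRT, CellTiter-Blue viability, 72 h incubation. Signal is normalised to DMSO and benzethonium chloride controls. Value is the normalised response at dose 7.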

CAL-148 [2] = experiment: as above
Method: as §1

MDA-MB-453 [3] = experiment: as above
Method: as §1

DU-4475 [4] = experiment: as above
Method: as §1

CAL-85-1 [5] = experiment: as above
Method: as §1

HDQ-P1 [6] = experiment: as above
Method: as §1

CAL-51 [7] = experiment: as above; remark: listed apart in the source
Method: (§2)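 DSRT, CellTiter-Blue viability, 72 h incubation. Signal is normalised to DMSO and benzethonium chloride controls. Value is the normalised response at dose 9.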

CAL-148 [8] = experiment: as above; remark: listed apart in the source
Method: as §2

MDA-MB-453 [9] = experiment: as above; remark: listed apart in the source
Method: as §2

DU-4475 [10] = experiment: as above; remark: listed apart in the source
Method: as §2

CAL-85-1 [11] = experiment: as above; remark: listed apart in the source
Method: as §2

HDQ-P1 [12] = experiment: as above; remark: listed apart in the source
Method: as §2

MDA-MB-231 = experiment: drug sensitivity score (DSS), CellTox Green (DSS (AUC-based score)); higher = stronger drug effect (viability inhibition or cytotoxicity); extreme values may be limits of the assay
Outline: (§3)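 The drug sensitivity score reflects the area under a fitted dose-response curve. To obtain it, breast cancer cells in 20 µl suspension were seeded into 384-well plates containing compound at 5 concentrations, 10-fold apart over a compound-specific 10,000-fold range, and incubated 72 h. CellTox Green fluorescence (485/520 nm) was read first and CellTiter-Glo luminescence second, after 10 min at room temperature. Each plate was normalised to 0.1 % DMSO and a positive kill control.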

Hs578T = experiment: as above
Outline: as §3

HCC1937 = experiment: as above
Outline: as §3

Structure (SMILES)	normalised viability (CAL-51 [1])	normalised viability (CAL-148 [2])	normalised viability (MDA-MB-453 [3])	normalised viability (DU-4475 [4])	normalised viability (CAL-85-1 [5])	normalised viability (HDQ-P1 [6])	normalised viability (CAL-51 [7])	normalised viability (CAL-148 [8])	normalised viability (MDA-MB-453 [9])	normalised viability (DU-4475 [10])	normalised viability (CAL-85-1 [11])	normalised viability (HDQ-P1 [12])	drug sensitivity score (MDA-MB-231)	drug sensitivity score (Hs578T)	drug sensitivity score (HCC1937)
CN1CCC(COc2cnc(-c3cccc(Cn4nc(-c5cccc(C#N)c5)ccc4=O)c3)nc2)CC1 (1000 nM)	99.2%	90.4%	90.8%	97.2%	98.6%	95%									
CN(C)C/C=C/C(=O)Nc1cc2c(Nc3ccc(F)c(Cl)c3)ncnc2cc1O[C@H]1CCOC1 [Afatinib] (1000 nM)	99.7%	73.7%	27.5%	87.7%	48.6%	49.8%									
CN1CC[C@H](c2c(O)cc(O)c3c(=O)cc(-c4ccccc4Cl)oc23)[C@H](O)C1 [Alvocidib] (1000 nM)	4.57%	10.3%	9.17%	3.18%	1.95%	10.8%									
CN1CC[C@H](c2c(O)cc(O)c3c(=O)cc(-c4ccccc4Cl)oc23)[C@H](O)C1 [Alvocidib] (10000 nM)							5.62%	17%	10.1%	1.22%	2.66%	16.4%			
Nc1nc(Cl)nc2c1ncn2[C@H]1C[C@H](O)[C@@H](CO)O1 [Cladribine] (100 nM)	111%	96.9%	98.4%	81%	84.2%	95.5%									
Nc1nc(Cl)nc2c1ncn2[C@H]1C[C@H](O)[C@@H](CO)O1 [Cladribine] (1000 nM)							69.8%	52.4%	73.7%	40.3%	67.8%	104%			
Nc1ccn([C@@H]2O[C@H](CO)[C@@H](O)[C@@H]2O)c(=O)n1 [Cytarabine] (1000 nM)	29.8%	44.6%	62.4%	39.7%	88.5%	82.2%									
Nc1ccn([C@@H]2O[C@H](CO)[C@@H](O)[C@@H]2O)c(=O)n1 [Cytarabine] (10000 nM)							14.7%	29.1%	58.7%	22.1%	68.2%	87.4%			
Cc1c2oc3c(C)ccc(C(=O)N[C@@H]4C(=O)N[C@H](C(C)C)C(=O)N5CCC[C@H]5C(=O)N(C)CC(=O)N(C)[C@@H](C(C)C)C(=O)O[C@@H]4C)c3nc-2c(C(=O)N[C@@H]2C(=O)N[C@H](C(C)C)C(=O)N3CCC[C@H]3C(=O)N(C)CC(=O)N(C)[C@@H](C(C)C)C(=O)O[C@@H]2C)c(N)c1=O [Dactinomycin] (100 nM)	2.49%	7.49%	4.93%	0.64%	3.46%	12.9%									
Cc1c2oc3c(C)ccc(C(=O)N[C@@H]4C(=O)N[C@H](C(C)C)C(=O)N5CCC[C@H]5C(=O)N(C)CC(=O)N(C)[C@@H](C(C)C)C(=O)O[C@@H]4C)c3nc-2c(C(=O)N[C@@H]2C(=O)N[C@H](C(C)C)C(=O)N3CCC[C@H]3C(=O)N(C)CC(=O)N(C)[C@@H](C(C)C)C(=O)O[C@@H]2C)c(N)c1=O [Dactinomycin] (1000 nM)							4.61%	12%	5.82%	-0.64%	2.21%	16.8%			
COc1cccc2c1C(=O)c1c(O)c3c(c(O)c1C2=O)C[C@@](O)(C(=O)CO)C[C@@H]3O[C@H]1C[C@H](N)[C@H](O)[C@H](C)O1 [Doxorubicin] (100 nM)	66.1%	39.1%	98.8%	59.1%	77.5%	70.9%									
COc1cccc2c1C(=O)c1c(O)c3c(c(O)c1C2=O)C[C@@](O)(C(=O)CO)C[C@@H]3O[C@H]1C[C@H](N)[C@H](O)[C@H](C)O1 [Doxorubicin] (1000 nM)							3.87%	-1.37%	3.55%	-2.19%	7.31%	13.7%			
Cc1ccc(F)c(NC(=O)Nc2ccc(-c3cccc4[nH]nc(N)c34)cc2)c1 [Linifanib] (100 nM)	108%	103%	100%	103%	87.4%	113%									
Cc1ccc(F)c(NC(=O)Nc2ccc(-c3cccc4[nH]nc(N)c34)cc2)c1 [Linifanib] (1000 nM)							98.1%	80.2%	111%	99.5%	96.8%	120%			
CC(=O)O[C@]1(C(C)=O)CC[C@H]2[C@@H]3C=C(C)C4=CC(=O)CC[C@]4(C)[C@H]3CC[C@@]21C [Megestrol acetate]													0	1.68	0
S=c1[nH]cnc2nc[nH]c12 [Mercaptopurine] (1000 nM)	101%	100%	110%	90.6%	78.4%	90.3%									
S=c1[nH]cnc2nc[nH]c12 [Mercaptopurine] (10000 nM)							75.1%	86.6%	100%	102%	80.3%	90.3%			

Structure (SMILES)	normalised viability (CAL-51 [1])	normalised viability (CAL-148 [2])	normalised viability (MDA-MB-453 [3])	normalised viability (DU-4475 [4])	normalised viability (CAL-85-1 [5])	normalised viability (HDQ-P1 [6])	normalised viability (CAL-51 [7])	normalised viability (CAL-148 [8])	normalised viability (MDA-MB-453 [9])	normalised viability (DU-4475 [10])	normalised viability (CAL-85-1 [11])	normalised viability (HDQ-P1 [12])	drug sensitivity score (MDA-MB-231)	drug sensitivity score (Hs578T)	drug sensitivity score (HCC1937)
Clc1ccc(C(c2ccccc2Cl)C(Cl)Cl)cc1 (stereo unspecified) [Mitotane] (1000 nM)	105%	108%	97.5%	87.9%	83.2%	104%									
Clc1ccc(C(c2ccccc2Cl)C(Cl)Cl)cc1 (stereo unspecified) [Mitotane] (10000 nM)							109%	110%	89.7%	97.4%	89.7%	109%			
COc1cccc2cc(-c3nc([C@H]4CC[C@H](C(=O)O)CC4)n4ncnc(N)c34)[nH]c12 [OSI-027] (1000 nM)	61.8%	65.1%	37.5%	68.1%	61%	39.3%									
COc1cccc2cc(-c3nc([C@H]4CC[C@H](C(=O)O)CC4)n4ncnc(N)c34)[nH]c12 [OSI-027] (10000 nM)							14.5%	10.6%	12.5%	30.1%	25.2%	20.2%			
OC[C@H]1O[C@@H](n2cnc3c2N=CNC[C@H]3O)C[C@@H]1O [Pentostatin] (1000 nM)	89.9%	123%	98.2%	102%	108%	85.4%									
OC[C@H]1O[C@@H](n2cnc3c2N=CNC[C@H]3O)C[C@@H]1O [Pentostatin] (10000 nM)							88.3%	124%	106%	103%	108%	99.7%			
N#CC[C@H](C1CCCC1)n1cc(-c2ncnc3[nH]ccc23)cn1 [Ruxolitinib] (1000 nM)	90%	101%	92.4%	112%	110%	91.1%									
N#CC[C@H](C1CCCC1)n1cc(-c2ncnc3[nH]ccc23)cn1 [Ruxolitinib] (10000 nM)							87.3%	106%	66.1%	113%	115%	107%			
C=CC[C@@H]1/C=C(\C)C[C@H](C)C[C@H](OC)[C@H]2O[C@@](O)(C(=O)C(=O)N3CCCC[C@H]3C(=O)O[C@H](/C(C)=C/[C@@H]3CC[C@@H](O)[C@H](OC)C3)[C@H](C)[C@@H](O)CC1=O)[C@H](C)C[C@@H]2OC [Tacrolimus] (1000 nM)	96.6%	103%	108%	115%	95.4%	111%									
C=CC[C@@H]1/C=C(\C)C[C@H](C)C[C@H](OC)[C@H]2O[C@@](O)(C(=O)C(=O)N3CCCC[C@H]3C(=O)O[C@H](/C(C)=C/[C@@H]3CC[C@@H](O)[C@H](OC)C3)[C@H](C)[C@@H](O)CC1=O)[C@H](C)C[C@@H]2OC [Tacrolimus] (10000 nM)							95%	115%	98.6%	107%	100%	136%			
C=CCNC1=C2C[C@@H](C)C[C@H](OC)[C@H](O)[C@@H](C)/C=C(\C)[C@H](OC(N)=O)[C@@H](OC)/C=C\C=C(/C)C(=O)NC(=CC1=O)C2=O [Tanespimycin] (1000 nM)	24.2%	20.8%	7.14%	0.99%	24.7%	22.9%									
CO[C@H]1C[C@@H]2CC[C@@H](C)[C@@](O)(O2)C(=O)C(=O)N2CCCC[C@H]2C(=O)O[C@H]([C@H](C)C[C@@H]2CC[C@@H](OC(=O)C(C)(CO)CO)[C@H](OC)C2)CC(=O)[C@H](C)/C=C(\C)[C@@H](O)[C@@H](OC)C(=O)[C@H](C)C[C@H](C)/C=C/C=C/C=C/1C [Temsirolimus] (100 nM)	37.9%	37%	24.9%	50.6%	53.2%	71.8%									
O=C(c1ccc(C(=O)N2CCC(N3CCCC3)CC2)c(Nc2ccccc2)c1)N1CCC(N2CCCC2)CC1 [UNC1215]													0		0
C[C@]1(c2nc3c(C(N)=O)cccc3[nH]2)CCCN1 [Veliparib] (1000 nM)	107%	106%	84.4%	82.1%	73.3%	97.1%									
CC[C@]1(O)C[C@@H]2CN(CCc3c([nH]c4ccccc34)[C@@](C(=O)OC)(c3cc4c(cc3OC)N(C)[C@H]3[C@@](O)(C(=O)OC)[C@H](OC(C)=O)[C@]5(CC)C=CCN6CC[C@]43[C@@H]65)C2)C1 [Vinblastine] (100 nM)	23.3%	20.1%	23.8%	34.8%	30.2%	37.6%									
CS(=O)(=O)c1ccc(C(=O)Nc2ccc(Cl)c(-c3ccccn3)c2)c(Cl)c1 [Vismodegib] (1000 nM)	99.1%	98.3%	98.3%	114%	97.1%	92.4%									
